Test results reported in patent publication US20250312469A1 (CANGET BIOTEKPHARMA, priority 2024, published 2025).
Like-named read-outs stand apart in the source and are kept apart here. Marks after values point to notes of the source that are not given here.

[1] = female dogs, Group 4, 4/4 mg/kg/dose, Day 15
[2] = female dogs, Group 4, 4/4 mg/kg/dose, Day −4
[3] = female dogs, Group 4, 4/4 mg/kg/dose, Day −4 (pre-dose)
[4] = male dogs, Group 4, 4/4 mg/kg/dose, Day 15
[5] = male dogs, Group 4, 4/4 mg/kg/dose, Day −4

CCC1(O)C(=O)OCc2c1cc1n(c2=O)Cc2cc3cc4c(cc3nc2-1)OCO4 (centres unmarked) [FL118]
RET count percentage, max decrease, male (Day 15 vs controls): 30.65%
leukocyte (WBC) counts, max decrease, male (Day 15 vs controls): 14.33%
neutrophils counts (#NEUT), max decrease, male (Day 15 vs controls): 18.67%
reticulocyte (RET) count absolute, max decrease, male (Day 15 vs controls): 33.4%
clinical signs (all treatment groups): abnormal stool
Cl (chloride), % Diff versus vehicle Group 1 (female dogs, Group 2, 2.5/[…], Day 15): 0%
Cl (chloride), % Diff versus vehicle Group 1 (female dogs, Group 2, 2.5/[…], Day −4 (pre-dose)): 0%
Cl (chloride), % Diff versus vehicle Group 1 (female dogs, Group 3, 3.3/[…], Day 15): −1%
Cl (chloride), % Diff versus vehicle Group 1 (female dogs, Group 3, 3.3/[…], Day −4 (pre-dose)): −1%
#EOS (eosinophils, absolute) % Diff vs Group 1 [1]: 6.45%
#LYMP (lymphocytes, absolute) % Diff vs Group 1 [1]: −12.61%
#NEUT % Diff [1]: 32.40%
#RET % Diff [1]: 61.4%
#RET Mean [1]: 60.5 10^9/L
% BASO (basophils, percent) % Diff vs Group 1 [1]: −46.7%
% BASO, basophils, percent, Mean [1]: 0.3%
% EOS (eosinophils, percent) % Diff vs Group 1 [1]: −5.6%
% EOS, eosinophils, percent, Mean [1]: 2.2%
% LYMP (lymphocytes, percent) % Diff vs Group 1 [1]: −21.4%
% LYMP, lymphocytes, percent, Mean [1]: 27.8%
% MONO (monocytes, percent) % Diff vs Group 1 [1]: −18.3%
% MONO, monocytes, percent, Mean [1]: 5.5%
% NEUT % Diff [1]: 17.0%
% NEUT Mean [1]: 63.9%
% RET % Diff [1]: 47.72%
ALB (albumin), % Diff versus vehicle Group 1 [1]: −1.6%
ALP (alkaline phosphatase), % Diff versus vehicle Group 1 [1]: −19%
ALP, alkaline phosphatase, Mean [1]: 110 U/L
ALT (alanine aminotransferase), % Diff versus vehicle Group 1 [1]: 24%
ALT, alanine aminotransferase, Mean [1]: 36 U/L
AST (aspartate aminotransferase), % Diff versus vehicle Group 1 [1]: −7%
AST, aspartate aminotransferase, Mean [1]: 29 U/L
BIL-T, total bilirubin, Mean [1]: 1.60 µmol/L
CK (creatine kinase), % Diff versus vehicle Group 1 [1]: −32%
CK, creatine kinase, Mean [1]: 200 U/L
CRE (creatinine), % Diff versus vehicle Group 1 [1]: 12%
CRE, creatinine, Mean [1]: 54 µmol/L
Ca, calcium, Mean [1]: 2.53 mmol/L
Cl (chloride), % Diff versus vehicle Group 1 [1]: 1%
GGT (gamma-glutamyltransferase), % Diff versus vehicle Group 1 [1]: 0%
GGT (gamma-glutamyltransferase), Mean [1]: 3 U/L
HCT % Diff [1]: 9.2%
HCT Mean [1]: 43.8%
HGB % Diff [1]: 9.5%
HGB Mean [1]: 14.8 g/dL
K (potassium), % Diff versus vehicle Group 1 [1]: −8.3%
MCH Mean [1]: 23.6 pg
MCHC % Diff [1]: −0.1%
MCHC Mean [1]: 33.9 g/dL
MCV % Diff [1]: −1.6%
MCV Mean [1]: 69.6 fL
MPV (mean platelet volume) % Diff vs Group 1 [1]: −6.3%
MPV, mean platelet volume, Mean [1]: 12.3 fL
P (inorganic phosphorus), % Diff versus vehicle Group 1 [1]: −11.74%
PLT (platelet count) % Diff vs Group 1 [1]: −12%
RBC % Diff [1]: 11.06%
RDW % Diff [1]: −2.9%
RDW Mean [1]: 12.5%
TCHO (total cholesterol), % Diff versus vehicle Group 1 [1]: −6.71%
TCHO, total cholesterol, Mean [1]: 3.52 mmol/L
TG (triglyceride), % Diff versus vehicle Group 1 [1]: −27.70%
TP (total protein), % Diff versus vehicle Group 1 [1]: 3.5%
TP, total protein, Mean [1]: 57.5 g/L
UREA (urea), % Diff versus vehicle Group 1 [1]: −3.71%
WBC % Diff [1]: 12.58%
sGLU (glucose), % Diff versus vehicle Group 1 [1]: 7.41%
sGLU, glucose, Mean [1]: 4.59 mmol/L
TG, triglyceride, Mean (female dogs, Group 4, 4/4 mg/kg/dose, Day 15, * p ≤ 0.05): 0.36* mmol/L
#BASO (basophils, absolute) % Diff vs Group 1 [2]: 0.00%
#EOS (eosinophils, absolute) % Diff vs Group 1 [2]: 18.46%
#LYMP (lymphocytes, absolute) % Diff vs Group 1 [2]: −9.70%
#MONO (monocytes, absolute) % Diff vs Group 1 [2]: 6.36%
#NEUT % Diff [2]: 45.57%
#RET % Diff [2]: −2.5%
% BASO (basophils, percent) % Diff vs Group 1 [2]: −25.0%
% BASO, basophils, percent, Mean [2]: 0.2%
% EOS (eosinophils, percent) % Diff vs Group 1 [2]: 4.5%
% EOS, eosinophils, percent, Mean [2]: 2.3%
% LYMP (lymphocytes, percent) % Diff vs Group 1 [2]: −25.5%
% LYMP, lymphocytes, percent, Mean [2]: 24.4%
% MONO (monocytes, percent) % Diff vs Group 1 [2]: −14.4%
% MONO, monocytes, percent, Mean [2]: 6.9%
% NEUT % Diff [2]: 17.0%
% RET Mean [2]: 0.71%
HCT % Diff [2]: 5.4%
HCT Mean [2]: 44.9%
HGB % Diff [2]: 7.3%
HGB Mean [2]: 15.1 g/dL
MCH Mean [2]: 23.4 pg
MCHC % Diff [2]: 1.8%
MCHC Mean [2]: 35.7 g/dL
MCV % Diff [2]: −1.8%
MPV, mean platelet volume, Mean [2]: 11.1 fL
PLT (platelet count) % Diff vs Group 1 [2]: −10%
RDW Mean [2]: 13.1%
WBC % Diff [2]: 23.46%
ALB (albumin), % Diff versus vehicle Group 1 [3]: 1.8%
ALP (alkaline phosphatase), % Diff versus vehicle Group 1 [3]: −19%
ALP, alkaline phosphatase, Mean [3]: 129 U/L
ALT (alanine aminotransferase), % Diff versus vehicle Group 1 [3]: −8%
ALT, alanine aminotransferase, Mean [3]: 25 U/L
AST (aspartate aminotransferase), % Diff versus vehicle Group 1 [3]: −11%
AST, aspartate aminotransferase, Mean [3]: 31 U/L
BIL-T (total bilirubin), % Diff versus vehicle Group 1 [3]: 23.23%
CK (creatine kinase), % Diff versus vehicle Group 1 [3]: −39%
CK, creatine kinase, Mean [3]: 233 U/L
CRE (creatinine), % Diff versus vehicle Group 1 [3]: 11%
CRE, creatinine, Mean [3]: 52 µmol/L
Ca (calcium), % Diff versus vehicle Group 1 [3]: −2.36%
Cl (chloride), % Diff versus vehicle Group 1 [3]: 2%
GGT (gamma-glutamyltransferase), % Diff versus vehicle Group 1 [3]: 0%
GGT (gamma-glutamyltransferase), Mean [3]: 3 U/L
GLB, globulin, Mean [3]: 27.3 g/L
K, potassium, Mean [3]: 4.3 mmol/L
Na (sodium), % Diff versus vehicle Group 1 [3]: 1%
Na, sodium, Mean [3]: 147 mmol/L
P (inorganic phosphorus), % Diff versus vehicle Group 1 [3]: −6.41%
P, inorganic phosphorus, Mean [3]: 1.61 mmol/L
TCHO (total cholesterol), % Diff versus vehicle Group 1 [3]: −6.71%
TCHO, total cholesterol, Mean [3]: 3.66 mmol/L
TG (triglyceride), % Diff versus vehicle Group 1 [3]: −11.26%
TG, triglyceride, Mean [3]: 0.45 mmol/L
TP, total protein, Mean [3]: 57.4 g/L
UREA, urea, Mean [3]: 4.17 mmol/L
sGLU (glucose), % Diff versus vehicle Group 1 [3]: −0.07%
NOAEL (for males): 4.4 mg/kg/dose
Cl (chloride) % Diff vs Group 1 (male dogs, Group 2, 2.5/[…], Day 15): 3%
Cl (chloride) % Diff vs Group 1 (male dogs, Group 2, 2.5/[…], Day −4): 2%
Cl (chloride) % Diff vs Group 1 (male dogs, Group 3, 3.3/[…], Day 15): 2%
Cl (chloride) % Diff vs Group 1 (male dogs, Group 3, 3.3/[…], Day −4): −1%
ALP (alkaline phosphatase) % Diff vs Group 1 [4]: −31%
ALT (alanine aminotransferase) % Diff vs Group 1 [4]: 4%
ALT, alanine aminotransferase, Mean [4]: 29 L⁻¹
AST (aspartate aminotransferase) % Diff vs Group 1 [4]: −31%
BIL-T (total bilirubin (diasys)) % Diff vs Group 1 [4]: 31.07%
BIL-T (total bilirubin (diasys)) Mean [4]: 1.48 L⁻¹
CK (creatine kinase) % Diff vs Group 1 [4]: −10%
CK, creatine kinase, Mean [4]: 281 U/L
GGT (gamma-glutamyltransferase), Mean [4]: 3 U/L
GLB, globulin, Mean [4]: 28.3* g/L
K (potassium) % Diff vs Group 1 [4]: −10.3%
K, potassium, Mean [4]: 4.4 mmol/L
Na (sodium) % Diff vs Group 1 [4]: 2%
Na, sodium, Mean [4]: 148 mmol/L
P, inorganic phosphorus, Mean [4]: 1.63 L⁻¹
TCHO, total cholesterol, Mean [4]: 4.77 mmol/L
TG (triglyceride) % Diff vs Group 1 [4]: −15.79%
UREA (urea) % Diff vs Group 1 [4]: 2.96%
sGLU (glucose) % Diff vs Group 1 [4]: −6.55%
sGLU, glucose, Mean [4]: 4.47 L⁻¹
ALB, albumin, Mean [5]: 11.0 g/L
ALP (alkaline phosphatase) % Diff vs Group 1 [5]: −5%
ALP, alkaline phosphatase, Mean [5]: 141 L⁻¹
ALT (alanine aminotransferase) % Diff vs Group 1 [5]: 3%
ALT, alanine aminotransferase, Mean [5]: 25 L⁻¹
AST (aspartate aminotransferase) % Diff vs Group 1 [5]: −3%
AST, aspartate aminotransferase, Mean [5]: 32 L⁻¹
BIL-T (total bilirubin (diasys)) Mean [5]: 1.67 L⁻¹
CK (creatine kinase) % Diff vs Group 1 [5]: 15%
CRE (creatinine) % Diff vs Group 1 [5]: 8%
Cl (chloride) % Diff vs Group 1 [5]: 1%
K (potassium) % Diff vs Group 1 [5]: −2.8%
K, potassium, Mean [5]: 4.7 mmol/L
Na (sodium) % Diff vs Group 1 [5]: 0%
Na, sodium, Mean [5]: 146 mmol/L
P, inorganic phosphorus, Mean [5]: 1.52 L⁻¹
TCHO (total cholesterol) % Diff vs Group 1 [5]: −2.15%
TCHO, total cholesterol, Mean [5]: 4.85 mmol/L
TG (triglyceride) % Diff vs Group 1 [5]: −8.33%
TG, triglyceride, Mean [5]: 0.40 mmol/L
UREA, urea, Mean [5]: 4.25 L⁻¹
sGLU, glucose, Mean [5]: 4.11 L⁻¹
Total Bilirubin (BIL-T), max increase, females (vs control group): 16.14%
Total Bilirubin (BIL-T), max increase, males (vs control group): 47.34%
Triglyceride (TG), max decrease, females (vs control group): 37.84%
Triglyceride (TG), max decrease, males (vs control group): 22.56%
